We go through five substances from article PMC4457802 (PLoS ONE, 2015).

Like-named read-outs stand apart in the source and are kept apart here. Some results are limits rather than exact numbers.

The test system of test [1] is S. pneumoniae (30 clinical isolates). It is filed as cell-based, Streptococcus pneumoniae. The following applies: for MIC S. pneumoniae (30 clinical isolates), in parentheses: numbers in parentheses are micromolar concentrations. The text has this:
(§1) Thirty (30) Pneumococcal clinical isolates were obtained from University of Malaya Medical Centre (UMMC). For broad-spectrum activity of AMPs, E. coli ATCC 25922, Staphylococcus aureus ATCC 25923, P. aeruginosa ATCC 15442, Acinetobacter baumanii ATCC 15308, and one clinical isolate of each methicillin resistant S. aureus (MRSA), […], citrobacter spp., and K. pneumoniae were used in this study.
(§2) The minimum inhibitory concentration (MIC) of the peptides against 30 pneumococcal isolates was determined by broth microdilution protocol as indicated by the CLSI guidelines (Clinical and Laboratory Standards Institute). Briefly, bacterial strains were grown for 18–24 hr at 37°C under 5% CO2. Direct suspension of the colonies were made in cationically-adjusted Müeller-Hinton broth (CAMHB) and adjusted to OD 625 0.08–0.1 which corresponds to 1 ~ 2 x10^8 CFU/ml followed by serial ten-fold dilutions to give 1x10^6 CFU/ml. 50μl of bacterial suspension were added to 96-well round bottom microtiter plates containing equal volume of peptides at different concentrations (1.95, 3.90, 7.81, 15.62, 31.25, 62.5, 125, 250μg/ml) and the 96-well plates were incubated for 20-24hr at 37°C in the presence of 5% CO2.

The subject of test [2] is Acinetobacter baumanii ATCC 15308. It is filed as cell-based. The following applies: numbers in parentheses are micromolar concentrations.
From the text: as §1, §2

For test [3], the system named is E. coli ATCC 25922. The test is classed as cell-based. The following applies: numbers in parentheses are micromolar concentrations.
From the text: as §1, §2

Test [4] deals with Enterococcus cloacae. It is filed as cell-based. The following applies: numbers in parentheses are micromolar concentrations.
From the text: as §1, §2

The test system of test [5] is K. pneumoniae. It is filed as cell-based. The following applies: numbers in parentheses are micromolar concentrations.
From the text: as §1, §2

The test system of test [6] is Methicillin resistant S. aureus (MRSA). The test is classed as cell-based. The following applies: numbers in parentheses are micromolar concentrations.
From the text: as §1, §2

Test [7] concerns P. aeruginosa ATCC 15442. It is filed as cell-based. The following applies: numbers in parentheses are micromolar concentrations.
From the text: as §1, §2

Test [8] has as its system citrobacter spp. It is filed as cell-based. The following applies: numbers in parentheses are micromolar concentrations.
From the text: as §1, §2

The test system of test [9] is S. aureus ATCC 25923. It is filed as cell-based, Staphylococcus aureus. The following applies: for MIC S. aureus ATCC 25923, in parentheses: numbers in parentheses are micromolar concentrations.
From the text: as §1, §2

On to “FLGGLIKRPPAMICAVRKKC-OH [RN4, ranalexin analog]”, for which the “MIC S. pneumoniae (30 clinical isolates), in parentheses” value (shortened to “MIC S. pneumoniae … in parentheses”) in test [1] is >250 (>113) micromolar. Besides, the “MIC Acinetobacter baumanii ATCC 15308, in parentheses” value in test [2] is >250 (>113) micromolar. Further, the “MIC E. coli ATCC 25922, in parentheses” value in [3] was >250 (>113) micromolar. Also, in test [4], the “MIC Enterococcus cloacae, in parentheses” value was >250 (>113) micromolar. Besides, in [5], the “MIC K. pneumoniae, in parentheses” value is >250 (>113) micromolar. Besides, the “MIC MRSA, in parentheses” value in test [6] is listed as >250 (>113) micromolar. Besides, the “MIC P. aeruginosa ATCC 15442, in parentheses” value in test [7] was >250 (>113) micromolar. Further, the “MIC citrobacter spp, in parentheses” value in test [8] is reported as >250 (>113) micromolar. The “MIC S. aureus ATCC 25923, in parentheses” value in test [9] is recorded as >250 (>113) micromolar.

For the substance “FLGGLIKIVPAMICAVRKKC-OH [RN1, ranalexin analog]”, in test [1] (unit of the source corrected), the MIC S. pneumoniae (30 clinical isolates), in parentheses was determined as 250 mg/L. Moreover, in [2], the “MIC Acinetobacter baumanii ATCC 15308, in parentheses” value is reported as >250 (>115.7) micromolar. The MIC E. coli ATCC 25922, in parentheses in test [3] (unit of the source corrected) is 250 mg/L. In test [4], the “MIC Enterococcus cloacae, in parentheses” value is given as >250 (>115.7) micromolar. Further, in test [5], the “MIC K. pneumoniae, in parentheses” value is given as >250 (>115.7) micromolar. Further, in test [6] (unit of the source corrected), the MIC MRSA, in parentheses came out at 250 mg/L. Also, in test [7], the “MIC P. aeruginosa ATCC 15442, in parentheses” value is reported as >250 (>115.7) micromolar. For the same substance, the “MIC citrobacter spp, in parentheses” value in test [8] is on record as >250 (>115.7) micromolar. In addition, the MIC S. aureus ATCC 25923, in parentheses in test [9] (unit of the source corrected) was 125 mg/L.

For “FLGGLIKRVPAMICAVRKKC-OH [RN3, ranalexin analog]”, the “MIC S. pneumoniae … in parentheses” value in [1] is recorded as >250 (>113) micromolar. The “MIC Acinetobacter baumanii ATCC 15308, in parentheses” value in [2] is given as >250 (>113) micromolar. Further, the “MIC E. coli ATCC 25922, in parentheses” value in [3] is given as >250 (>113) micromolar. The “MIC Enterococcus cloacae, in parentheses” value in test [4] is recorded as >250 (>113) micromolar. In addition, the “MIC K. pneumoniae, in parentheses” value in test [5] was >250 (>113) micromolar. Further, the “MIC MRSA, in parentheses” value in test [6] is >250 (>113) micromolar. Further, the “MIC P. aeruginosa ATCC 15442, in parentheses” value in [7] is given as >250 (>113) micromolar. Further, the “MIC citrobacter spp, in parentheses” value in [8] is >250 (>113) micromolar. Further, in test [9], the “MIC S. aureus ATCC 25923, in parentheses” value was >250 (>113) micromolar.

With “FLGGLIKPVPAMICAVRKKC-OH [RN2, ranalexin analog]”, in test [1], the “MIC S. pneumoniae … in parentheses” value was >250 (>116) micromolar. Moreover, in [2], the “MIC Acinetobacter baumanii ATCC 15308, in parentheses” value is listed as >250 (>116) micromolar. In addition, the “MIC E. coli ATCC 25922, in parentheses” value in test [3] is >250 (>116) micromolar. In test [4], the “MIC Enterococcus cloacae, in parentheses” value was >250 (>116) micromolar. In addition, the “MIC K. pneumoniae, in parentheses” value in test [5] is recorded as >250 (>116) micromolar. Besides, the “MIC MRSA, in parentheses” value in [6] is >250 (>116) micromolar. Also, the “MIC P. aeruginosa ATCC 15442, in parentheses” value in test [7] was >250 (>116) micromolar. For the same substance, in [8], the “MIC citrobacter spp, in parentheses” value is >250 (>116) micromolar. In addition, the “MIC S. aureus ATCC 25923, in parentheses” value in test [9] was >250 (>116) micromolar.

For “RLPWRWPRRPWRR-NH2 [IN4, indolicidin analog]”, the “MIC S. pneumoniae (30 clinical isolates)” value in test [1] (broth microdilution, CAMHB, 20-24hr, 37°C, 5% CO2, lowest concentration that completely inhibits growth) is greater than 250 mg/L. Further, in test [1] (unit of the source corrected), the MIC S. pneumoniae (30 clinical isolates), in parentheses was 250 mg/L. For the same substance, the “MIC Acinetobacter baumanii ATCC 15308, in parentheses” value in [2] is listed as >250 (>130.4) micromolar. Moreover, in [3] (unit of the source corrected), the MIC E. coli ATCC 25922, in parentheses was determined as 250 mg/L. In addition, the “MIC Enterococcus cloacae, in parentheses” value in test [4] is listed as >250 (>130.4) micromolar. For the same substance, in test [5], the “MIC K. pneumoniae, in parentheses” value is >250 (>130.4) micromolar. The MIC MRSA, in parentheses in test [6] (unit of the source corrected) came out at 250 mg/L. Further, the MIC P. aeruginosa ATCC 15442, in parentheses in [7] (unit of the source corrected) amounted to 125 mg/L. Further, in test [8], the “MIC citrobacter spp, in parentheses” value is >250 (>130.4) micromolar. The “MIC S. aureus ATCC 25923” value in test [9] (broth microdilution) came out at 125 mg/L.
